Measured values reported in US9393221B2, “Methods and compounds for reducing intracellular lipid storage” (THE GENERAL HOSPITAL CORPORATION, priority 2011, dated 2016).
Structures can show the parent of a compound that is named as a salt.
Further: test concentration or dose not given here.

Each compound was assayed on ATGL-KO iPSCs (assay: High throughput iPSC chemical screening, Oil Red O (ORO) lipid accumulation). Conditions: normalized ORO level vs DMSO-treated cells; compound present during 7 days differentiation, 96-well; negative = decrease in lipid accumulation.
Format: cell-based, mouse
COc1ccc2c(c1OC)C(=O)O[C@@H]2[C@H]1c2cc3c(cc2CCN1C)OCO3 [Hydrastine hydrochloride] gave a Z-score of −0.3277. CN1CCc2cc3c(cc2C1O)OCO3 (stereo not drawn) [Hydrastinine hydrochloride] showed a Z-score of −0.5549. In the case of NS(=O)(=O)c1cc2c(cc1Cl)NCNS2(=O)=O [Hydrochlorothiazide], the Z-score is reported as 1.18. For C[C@]12CCC(=O)C=C1CC[C@@H]1[C@@H]2[C@@H](O)C[C@@]2(C)[C@H]1CC[C@]2(O)C(=O)CO [Hydrocortisone base], the Z-score was −0.2176. COc1c2c(cc3c1OCO3)CCN(C)C2 [Hydrocotarnine hydrobromide] showed a Z-score of −0.8038. For NS(=O)(=O)c1cc2c(cc1C(F)(F)F)NCNS2(=O)=O [Hydroflumethiazide], the Z-score was 0.1855. Work on CC[C@H]1CN2CC[C@H]1C[C@H]2[C@H](O)c1ccnc2ccc(OC)cc12 [Hydroquinine hydrobromide hydrate] yielded a Z-score of 1.2243. OCCOCCN1CCN(C(c2ccccc2)c2ccc(Cl)cc2)CC1 (stereo not drawn) [Hydroxyzine dihydrochloride] gave a Z-score of −0.9071. Work on Cc1cc(=O)oc2cc(O)ccc12 [Hymecromone] yielded a Z-score of −0.7731. Compound CN1[C@@H]2CC[C@H]1C[C@@H](OC(=O)[C@H](CO)c1ccccc1)C2 [Hyoscyamine (L)] has a Z-score of 1.204. With c1ccc2c(c1)OCC(C1=NCCN1)O2 (stereo not drawn) [Idazoxan hydrochloride] the Z-score was −1.447. O=c1[nH]c(=O)n([C@H]2C[C@H](O)[C@@H](CO)O2)cc1I [Idoxuridine] showed a Z-score of −1.0734. O=P1(NCCCl)OCCCN1CCCl (stereo not drawn) [Ifosfamide] gave a Z-score of −1.424. O=C(NCNC(=O)NC1C(=O)NC(=O)N1CO)NC1C(=O)NC(=O)N1CO (stereo not drawn) [Imidurea] gave a Z-score of 0.2567. With C[C@@H](O)[C@H]1C(=O)N2C(C(=O)O)=C(SCCN=CN)C[C@H]12 [Imipenem] the Z-score was −0.7436. CN(C)CCCN1c2ccccc2CCc2ccccc21 [Imipramine hydrochloride] showed a Z-score of 1.459. Work on CC1Cc2ccccc2N1NC(=O)c1ccc(Cl)c(S(N)(=O)=O)c1 (stereo not drawn) [Indapamide] yielded a Z-score of −0.6747. With COc1ccc2c(c1)c(CC(=O)O)c(C)n2C(=O)c1ccc(Cl)cc1 [Indomethacin] the Z-score was −0.7862. CC(C(=O)O)c1ccc(N2Cc3ccccc3C2=O)cc1 (stereo not drawn) [Indoprofen] was tested, and the Z-score was −1.4204. For CC(=O)N(CC(C)C(=O)O)c1c(I)cc(I)c(N)c1I (stereo not drawn) [Iocetamic acid], the Z-score was −1.5742. Work on O=C(CCCCC(=O)Nc1c(I)cc(I)c(C(=O)O)c1I)Nc1c(I)cc(I)c(C(=O)O)c1I [Iodipamide] yielded a Z-score of −0.3225. CC(=O)N(CC(O)CO)c1c(I)c(C(=O)NCC(O)CO)c(I)c(C(=O)NCC(O)CO)c1I (stereo not drawn) [Iohexol] was tested, and the Z-score was −1.1016. Work on C[C@H](O)C(=O)Nc1c(I)c(C(=O)NC(CO)CO)c(I)c(C(=O)NC(CO)CO)c1I [Iopamidol] yielded a Z-score of 1.108. CCC(Cc1c(I)cc(I)c(N)c1I)C(=O)O (stereo not drawn) [Iopanoic acid] showed a Z-score of −0.7767. In the case of COCC(=O)Nc1c(I)c(C(=O)NCC(O)CO)c(I)c(C(=O)N(C)CC(O)CO)c1I (stereo not drawn) [Iopromide], the Z-score is reported as 0.2481. Work on O=C(NCC(O)CO)c1c(I)c(C(=O)NCC(O)CO)c(I)c(N(CCO)C(=O)CO)c1I (stereo not drawn) [Ioversol] yielded a Z-score of 0.08392. For CNC(=O)c1c(I)c(C(=O)NCC(=O)Nc2c(I)c(C(=O)O)c(I)c(C(=O)NCCO)c2I)c(I)c(N(C)C(C)=O)c1I [Ioxaglic acid], the Z-score was −0.54. For CC(C)[N+]1(C)[C@@H]2CC[C@H]1CC(OC(=O)C(CO)c1ccccc1)C2.[Br-] (stereo partly drawn) [Ipratropium bromide], the Z-score was −0.1032. Work on Cc1cc(C(=O)NNCc2ccccc2)no1 [Isocarboxazid] yielded a Z-score of 1.91. For Clc1ccc(C(Cn2ccnc2)OCc2c(Cl)cccc2Cl)c(Cl)c1 (stereo not drawn) [Isoconazole], the Z-score was −1.2562. In the case of COc1ccc2c(c1O)-c1c(OC)c(OC)cc3c1[C@H](C2)N(C)CC3 [Isocorydine (+)], the Z-score is reported as −0.7668. With CC(=O)OCC(=O)[C@@]1(O)CC[C@H]2[C@@H]3CCC4=CC(=O)C=C[C@]4(C)[C@@]3(F)[C@@H](O)C[C@@]21C [Isoflupredone acetate] the Z-score was 1.55. CNC(C)CCC=C(C)C.CNC(C)CCC=C(C)C.O=C(O)[C@@H](O)[C@H](O)[C@H](O)[C@@H](O)C(=O)O [Isometheptene mucate] was tested, and the Z-score was 0.6197. Work on NNC(=O)c1ccncc1 [Isoniazid] yielded a Z-score of 0.9473. For CC(C)[N+](C)(CCC(C(N)=O)(c1ccccc1)c1ccccc1)C(C)C [Isopropamide iodide], the Z-score was −0.2928. Compound Cc1c(NC(C)C)c(=O)n(-c2ccccc2)n1C.Cl [Isopyrin hydrochloride] has a Z-score of 0.0325. CC1=C(/C=C/C(C)=C/C=C/C(C)=C\C(=O)O)C(C)(C)CCC1 [Isotretinoin] gave a Z-score of −1.1597. For Cc1cc(NC(=O)C2=C(O)c3ccccc3S(=O)(=O)N2C)no1 [Isoxicam], the Z-score was −0.7646. Work on CC(COc1ccccc1)NC(C)C(O)c1ccc(O)cc1 (stereo not drawn) [Isoxsuprine hydrochloride] yielded a Z-score of 0.3014. For COC(=O)C1=C(C)NC(C)=C(C(=O)OC(C)C)C1c1cccc2nonc12 (stereo not drawn) [Isradipine], the Z-score was 0.2737. CC[C@H](C)[C@H]1O[C@]2(CC[C@@H]1C)C[C@@H]1C[C@@H](C/C=C(\C)[C@@H](O[C@H]3C[C@H](OC)[C@@H](O[C@H]4C[C@H](OC)[C@@H](O)[C@H](C)O4)[C@H](C)O3)[C@@H](C)/C=C/C=C3\CO[C@@H]4[C@H](O)C(C)=C[C@@H](C(=O)O1)[C@]34O)O2 [Ivermectin] gave a Z-score of 0.9419. CO[C@@H]1[C@@H](O[C@@H]2O[C@H](C)[C@@H](O[C@H]3C[C@@](C)(O)[C@@H](OC(=O)CC(C)C)[C@H](C)O3)[C@H](N(C)C)[C@H]2O)[C@@H](CC=O)C[C@@H](C)[C@@H](O)/C=C/C=C/C[C@@H](C)OC(=O)C[C@H]1OC(C)=O [Josamycin] showed a Z-score of −0.5964. O=c1c(O)c(-c2ccc(O)cc2)oc2cc(O)cc(O)c12 [Kaempferol] showed a Z-score of −0.0374. Work on NC[C@H]1O[C@H](O[C@H]2[C@H](O)[C@@H](O[C@H]3O[C@H](CO)[C@@H](O)[C@H](N)[C@H]3O)[C@H](N)C[C@@H]2N)[C@H](O)[C@@H](O)[C@@H]1O.O=S(=O)(O)O [Kanamycin A sulfate] yielded a Z-score of 2.436. CCN1C[C@]2(C)CC[C@H](O)[C@]34C1[C@@H](C[C@H]23)[C@@]1(O)C[C@H](OC)[C@H]2C[C@@H]4[C@@H]1[C@H]2O [Karakoline] was tested, and the Z-score was −1.4178. Work on COC1=CC(=O)O[C@@H](/C=C/c2ccccc2)C1 [Kawain] yielded a Z-score of −0.5048. CC(=O)N1CCN(c2ccc(OCC3COC(Cn4ccnc4)(c4ccc(Cl)cc4Cl)O3)cc2)CC1 (stereo not drawn) [Ketoconazole] gave a Z-score of 1.224. In the case of CC(C(=O)O)c1cccc(C(=O)c2ccccc2)c1 (stereo not drawn) [Ketoprofen], the Z-score is reported as −0.219. O=C(c1ccccc1)c1ccc2n1CCC2C(=O)O (stereo not drawn) [Ketorolac tromethamine] showed a Z-score of −0.8373. With CN1CCC(=C2c3ccccc3CC(=O)c3sccc32)CC1 [Ketotifen fumarate] the Z-score was 0.5681. With COc1c2occc2c(OC)c2c(=O)cc(C)oc12 [Khellin] the Z-score was −0.1533. With Cl.OC1CCCCC1N1CCC(c2ccccc2)CC1 (stereo not drawn) [L(−)-vesamicol hydrochloride] the Z-score was −1.6146. Work on CC(CCc1ccccc1)NCC(O)c1ccc(O)c(C(N)=O)c1 (stereo not drawn) [Labetalol hydrochloride] yielded a Z-score of −1.5017. Compound O=C(O)[C@H](O)[C@@H](O)[C@H](O[C@@H]1O[C@H](CO)[C@H](O)[C@H](O)[C@H]1O)[C@H](O)CO [Lactobionic acid] has a Z-score of −0.5092. CC(=O)O[C@H]1C[C@H](O[C@H]2[C@@H](O)C[C@H](O[C@H]3[C@@H](O)C[C@H](O[C@H]4CC[C@@]5(C)[C@H](CC[C@@H]6[C@@H]5C[C@@H](O)[C@]5(C)[C@@H](C7=CC(=O)OC7)CC[C@]65O)C4)O[C@@H]3C)O[C@@H]2C)O[C@H](C)[C@H]1O[C@@H]1O[C@H](CO)[C@@H](O)[C@H](O)[C@H]1O [Lanatoside C] showed a Z-score of −1.0291. Compound Cc1c(OCC(F)(F)F)ccnc1C[S+]([O-])c1nc2ccccc2[nH]1 (stereo not drawn) [Lansoprazole] has a Z-score of −0.4696. Work on CC[C@@H](C(=O)[C@@H](C)[C@@H](O)[C@H](C)CCc1ccc(C)c(O)c1C(=O)O)[C@H]1O[C@](CC)([C@H]2CC[C@](O)(CC)[C@H](C)O2)C[C@@H]1C [Lasalocid sodium salt] yielded a Z-score of 9.898. Cc1oncc1C(=O)Nc1ccc(C(F)(F)F)cc1 [Leflunomide] gave a Z-score of 1.258. With N#Cc1ccc(C(c2ccc(C#N)cc2)n2cncn2)cc1 [Letrozole] the Z-score was 0.6693. For CC1=CC(=O)C2=C(C)CC[C@@H]3[C@H](OC(=O)[C@H]3C)[C@@H]12 [Leucomisine], the Z-score was −0.2458. Compound c1ccc([C@H]2CN3CCSC3=N2)cc1 [Levamisole hydrochloride] has a Z-score of −0.8539. Work on C[C@@H]1CN([C@H]2CC[C@](C#N)(c3ccc(F)cc3)CC2)CC[C@]1(C(=O)O)c1ccccc1 [Levocabastine hydrochloride] yielded a Z-score of 1.078. For N[C@@H](Cc1ccc(O)c(O)c1)C(=O)O [Levodopa], the Z-score was −0.1655. C[C@H](N)[C@H](O)c1ccc(O)c(O)c1 [Levonordefrin] showed a Z-score of −0.1555. In the case of CCC(=O)O[C@@](Cc1ccccc1)(c1ccccc1)[C@@H](C)CN(C)C [Levopropoxyphene napsylate], the Z-score is reported as −1.0896. For CCN(CC)CC(=O)Nc1c(C)cccc1C.Cl [LidocaOne hydrochloride], the Z-score was −0.9429. Work on Cc1cccc(C)c1NC(=O)CN1CCN(CCCC(c2ccc(F)cc2)c2ccc(F)cc2)CC1 [Lidoflazine] yielded a Z-score of 1.42. CCC[C@@H]1C[C@@H](C(=O)N[C@@H]([C@H]2O[C@H](SC)[C@H](O)[C@@H](O)[C@H]2O)[C@@H](C)O)N(C)C1 [Lincomycin hydrochloride] was tested, and the Z-score was 0.696. With N[C@@H](Cc1cc(I)c(Oc2ccc(O)c(I)c2)c(I)c1)C(=O)O [Liothyronine] the Z-score was 0.1954. For NCCCC[C@H](N[C@@H](CCc1ccccc1)C(=O)O)C(=O)N1CCC[C@H]1C(=O)O [Lisinopril], the Z-score was 0.5403. CCN(CC)C(=O)N[C@H]1C=C2c3cccc4[nH]cc(c34)C[C@H]2N(C)C1 [Lisuride (S)(−)] showed a Z-score of −0.7927. Work on C[C@H](CCC(=O)O)[C@H]1CC[C@H]2[C@@H]3CC[C@@H]4C[C@H](O)CC[C@]4(C)[C@H]3CC[C@]12C [Lithocholic acid] yielded a Z-score of 0.8022.
